From PubChem BioAssay (NCI)
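Growth conditions: 96-well plates. Treatment: test compound, 48 hours, 5 concentrations. Analysis: linear interpolation between bracketing concentrations; unreached endpoints set to highest concentration. The concentration for 50% growth inhibition is given as GI50. TGI marks complete inhibition of growth.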 Where a SMILES comes first, the peptide text is derived from it. [ ]: non-standard residue; d: D form. Phe(4-Cl) = N[CH](Cc1ccc(Cl)cc1)C(=O)O

Key:
Assay in all cases: growth of human tumour cells (NCI), 48 h
HOP-62 NSCLC = tested on: HOP-62 NSCLC
NCI-H23 lung = tested on: NCI-H23 lung
NCI-H522 lung = tested on: NCI-H522 lung
RPMI-8226 leukemia = tested on: RPMI-8226 leukemia
SK-MEL-2 melanoma = tested on: SK-MEL-2 melanoma
SK-MEL-5 melanoma = tested on: SK-MEL-5 melanoma
HT29 colon = tested on: HT29 colon
IGROV1 ovarian = tested on: IGROV1 ovarian
HS 578T breast = tested on: HS 578T breast
MDA-MB-435 = tested on: MDA-MB-435

SMILES	TGI (HOP-62 NSCLC)	TGI (NCI-H23 lung)	TGI (NCI-H522 lung)	TGI (RPMI-8226 leukemia)	TGI (SK-MEL-2 melanoma)	TGI (SK-MEL-5 melanoma)	TGI (HT29 colon)	TGI (IGROV1 ovarian)	TGI (HS 578T breast)	TGI (MDA-MB-435)	GI50 (HOP-62 NSCLC)	GI50 (HS 578T breast)	GI50 (HT29 colon)	GI50 (MDA-MB-435)	GI50 (NCI-H23 lung)	GI50 (RPMI-8226 leukemia)	GI50 (SK-MEL-2 melanoma)	GI50 (SK-MEL-5 melanoma)	GI50 (IGROV1 ovarian)
CN(C)P(=O)(/C(N)=N/Nc1ccc([N+](=O)[O-])cc1)N(C)C	> 100 µM	> 100 µM	> 100 µM	> 100 µM	> 100 µM	> 100 µM													
CC(O)C(NC(=O)C(Cc1ccccc1)NC(=O)C(NC(=O)C(CCCCN)NC(=O)C(Cc1c[nH]c2ccccc12)NC(=O)C(Cc1ccc(O)cc1)NC(=O)C(Cc1ccc(Cl)cc1)NC(=O)C(N)Cc1ccccc1)C(C)O)C(N)=O (stereo not drawn) (H-F[Phe(4-Cl)]YWKTFT-NH2; configuration not given here)	38.5 µM	41.2 µM		33.5 µM	39.3 µM		62.8 µM	44.8 µM											
CC(C)N(C(=O)C12CC3CC(CC(C3)C1)C2)C(C)C	> 50 µM	> 50 µM	> 50 µM	> 50 µM	> 50 µM	> 50 µM	> 50 µM	> 50 µM											
CC(C)=CCC/C(=C/CC/C(C)=C/CCc1ccoc1)C(=O)O	> 100 µM	> 100 µM	> 100 µM		> 100 µM	> 100 µM	> 100 µM												
CN(C)CCNC(=O)c1cccc(C(=O)Nc2ccccc2)c1[N+](=O)[O-]	> 100 µM	> 100 µM	> 100 µM		> 100 µM	> 100 µM	> 100 µM	> 100 µM	> 100 µM	> 100 µM									
Cc1ccccc1N(CCC#N)C1=NN(C(=O)CC(=O)Nc2ccccc2)C(c2ccccc2)C1 (stereo not drawn)	> 100 µM	> 100 µM	> 100 µM	> 100 µM	> 100 µM	> 100 µM	> 100 µM	> 100 µM											
CCN(CC)CCN1CC(O)=C(c2nc(-c3ccc(Cl)cc3)cs2)C1=N	3.99 µM	49.9 µM		5.09 µM	> 100 µM	3.02 µM	6.27 µM		3.59 µM	3.25 µM	1.83 µM	1.5 µM	2 µM	1.72 µM	7.39 µM	2 µM	16.9 µM	1.63 µM	
COC(=O)C1=NC(=S)NC(c2ccccc2)C1c1nc2ccccc2s1 (stereo not drawn)	> 100 µM	> 100 µM			> 100 µM	> 100 µM	> 100 µM	> 100 µM											
CCCCCCCCCCCCCC1CCC(CC)N1 (stereo not drawn)	17.9 µM	32.9 µM	32.6 µM	36.8 µM	36.4 µM	31.8 µM	15.1 µM	36.1 µM											
COc1ccc(-c2cn3ccsc3n2)cc1	> 100 µM	> 100 µM	> 100 µM	54.6 µM	> 100 µM	> 100 µM	> 100 µM	> 100 µM											
N.N.N.N.N.O=C([O-])c1nn[n-]n1.[Cl-].[Co+3]	> 100 µM	> 100 µM		> 100 µM	> 100 µM	> 100 µM	> 100 µM	> 100 µM			> 100 µM		> 100 µM		> 100 µM	> 100 µM	> 100 µM	> 100 µM	> 100 µM
CCOC(=O)NC(=O)c1cn(CCOCCOC(=O)NCCCCCCNC(=O)OCCOCCn2cc(C(=O)NC(=O)OCC)c(=O)[nH]c2=O)c(=O)[nH]c1=O	> 100 µM	> 100 µM	> 100 µM	> 100 µM	> 100 µM	> 100 µM	> 100 µM	> 100 µM											
